Data on six compounds can be found in ChEMBL document CHEMBL1133967, “New leads for selective inhibitors of alpha-L-fucosidases. Synthesis and glycosidase inhibitory activities of [(2R,3S,4R)-3,4-dihydroxypyrrolidin-2-yl]furan derivatives” (Bioorg Med Chem Lett, 2001).

The inhibition is the drop in the measured response relative to a control, in per cent.

Molecules are shown by their SMILES. Active and inactive are the calls of the source. The calls are words filed in the database; no cut-off is given here.

Assay [1] concerns Prunus dulcis. Kind of assay: Inhibitory activity against Alpha-mannosidase of Almonds at 1 mM; No inhibition.
Assay [2] deals with T1, Tissue alpha-L-fucosidase (Homo sapiens) (UniProt P04066).
T1 sequence (whole entry): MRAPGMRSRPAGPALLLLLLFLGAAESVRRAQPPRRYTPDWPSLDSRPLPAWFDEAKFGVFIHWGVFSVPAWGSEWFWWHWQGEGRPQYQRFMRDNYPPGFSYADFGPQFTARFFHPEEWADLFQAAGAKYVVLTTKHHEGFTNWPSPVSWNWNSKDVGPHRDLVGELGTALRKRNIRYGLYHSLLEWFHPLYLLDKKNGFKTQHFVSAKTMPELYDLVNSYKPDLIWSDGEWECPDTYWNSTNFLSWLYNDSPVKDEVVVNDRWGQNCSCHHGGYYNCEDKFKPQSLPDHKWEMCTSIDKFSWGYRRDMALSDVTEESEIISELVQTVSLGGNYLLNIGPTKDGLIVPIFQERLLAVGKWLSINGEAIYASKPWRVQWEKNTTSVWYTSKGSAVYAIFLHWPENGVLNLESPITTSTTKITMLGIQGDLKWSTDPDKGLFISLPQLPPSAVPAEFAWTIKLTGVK
The assay is described as follows: Inhibitory activity against alpha-L-Fucosidase of human placenta at 1 mM; No inhibition.

Assay [3] concerns Canavalia ensiformis. Kind of assay: Inhibitory activity against Alpha-mannosidase of Jack bean at 1 mM; No inhibition.
Assay [4] has as its target Glucoamylase (Aspergillus niger) (UniProt P69328). The assay is described as follows: Inhibitory activity against Amyloglucosidase of Aspergillus niger at 1 mM; No inhibition.
Assay [5] addresses T2, Beta-galactosidase (Bos taurus) (UniProt Q58D55).
T2 sequence (whole entry): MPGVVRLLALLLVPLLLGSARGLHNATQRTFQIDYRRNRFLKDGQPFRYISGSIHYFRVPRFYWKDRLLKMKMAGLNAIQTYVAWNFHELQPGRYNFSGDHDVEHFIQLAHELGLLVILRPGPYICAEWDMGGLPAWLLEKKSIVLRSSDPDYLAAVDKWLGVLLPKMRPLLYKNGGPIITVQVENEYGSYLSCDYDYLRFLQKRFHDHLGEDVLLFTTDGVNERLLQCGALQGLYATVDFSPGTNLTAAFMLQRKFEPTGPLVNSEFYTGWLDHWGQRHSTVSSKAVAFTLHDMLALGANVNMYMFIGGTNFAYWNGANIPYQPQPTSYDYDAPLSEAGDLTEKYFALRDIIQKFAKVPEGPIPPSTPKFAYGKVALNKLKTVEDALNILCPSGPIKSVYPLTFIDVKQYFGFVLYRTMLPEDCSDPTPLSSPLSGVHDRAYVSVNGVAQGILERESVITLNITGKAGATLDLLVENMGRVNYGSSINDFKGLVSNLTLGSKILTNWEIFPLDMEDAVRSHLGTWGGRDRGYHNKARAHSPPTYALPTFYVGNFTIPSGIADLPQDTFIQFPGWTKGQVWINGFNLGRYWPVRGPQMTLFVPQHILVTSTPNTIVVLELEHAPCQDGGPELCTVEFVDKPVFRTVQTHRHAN
Kind of assay: Percent inhibition against Beta-D-galactosidase of bovine liver at 1 mM.

Assay [6] deals with T3, Beta-galactosidase (Aspergillus niger) (UniProt P29853).
T3 sequence (whole entry): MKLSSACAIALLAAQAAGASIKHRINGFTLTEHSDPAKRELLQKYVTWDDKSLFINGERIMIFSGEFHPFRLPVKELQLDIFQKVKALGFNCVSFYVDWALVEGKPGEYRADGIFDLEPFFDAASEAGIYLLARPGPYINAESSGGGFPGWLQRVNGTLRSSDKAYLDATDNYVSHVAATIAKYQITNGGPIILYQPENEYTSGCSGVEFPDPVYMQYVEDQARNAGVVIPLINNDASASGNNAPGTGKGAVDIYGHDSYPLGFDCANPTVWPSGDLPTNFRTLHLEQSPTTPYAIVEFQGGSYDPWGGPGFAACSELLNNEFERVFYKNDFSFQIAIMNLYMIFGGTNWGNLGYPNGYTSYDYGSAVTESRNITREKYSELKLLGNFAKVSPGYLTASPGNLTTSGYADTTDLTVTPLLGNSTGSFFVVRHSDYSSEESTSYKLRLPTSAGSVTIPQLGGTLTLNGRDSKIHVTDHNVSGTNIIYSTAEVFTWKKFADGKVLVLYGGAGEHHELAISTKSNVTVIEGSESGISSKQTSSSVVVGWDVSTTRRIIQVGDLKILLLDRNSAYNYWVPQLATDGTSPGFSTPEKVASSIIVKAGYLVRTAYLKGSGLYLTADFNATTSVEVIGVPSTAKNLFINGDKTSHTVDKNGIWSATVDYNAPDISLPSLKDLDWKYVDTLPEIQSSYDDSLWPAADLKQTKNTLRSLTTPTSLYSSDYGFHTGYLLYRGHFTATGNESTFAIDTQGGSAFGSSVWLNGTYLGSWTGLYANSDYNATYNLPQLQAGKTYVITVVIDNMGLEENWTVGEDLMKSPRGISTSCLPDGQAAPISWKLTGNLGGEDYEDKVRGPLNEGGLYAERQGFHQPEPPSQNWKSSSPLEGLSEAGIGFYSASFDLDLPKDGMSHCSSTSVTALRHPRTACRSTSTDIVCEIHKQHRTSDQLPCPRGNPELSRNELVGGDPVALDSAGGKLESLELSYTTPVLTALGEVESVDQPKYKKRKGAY
The assay is described as follows: Inhibitory activity against Beta-D-galactosidase of Aspergillus niger at 1 mM; No inhibition.

Assay [7] has as its target Beta-galactosidase (Escherichia coli) (UniProt Q8VNN2). The assay is described as follows: Inhibitory activity against Beta-D-galactosidase of Escherichia coli at 1 mM; No inhibition.
Assay [8] concerns maltase (Oryza sativa). Kind of assay: Inhibitory activity against maltase of rice at 1 mM; No inhibition.
For assay [9], the system named is maltase (Saccharomyces cerevisiae). Kind of assay: Inhibitory activity against maltase of yeast at 1 mM; No inhibition.
Assay [10] deals with isomaltase (Saccharomyces cerevisiae). Kind of assay: Inhibitory activity against isomaltase of baker yeast at 1 mM; No inhibition.
Assay [11] deals with Prunus dulcis. The assay is described as follows: Inhibitory activity against Beta-glucosidase of almonds at 1 mM; No inhibition.
For another assay, the system named is Rhizopus. Kind of assay: Inhibitory activity against Amyloglucosidase of Rhizopus mold at 1 mM; No inhibition.
For assay [12], the system named is Canavalia ensiformis. The assay is described as follows: Inhibitory activity against Beta-D-galactosidase of Jack bean at 1 mM; No inhibition.
The subject of another assay is Helix pomatia. Kind of assay: Inhibitory activity against Beta-mannosidase of Helix pomatia at 1 mM; No inhibition.
The subject of the next assay is Coffea arabica. The assay is described as follows: Inhibitory activity against Alpha-galactosidase of coffee bean at 1 mM; No inhibition.
The next assay relates to Escherichia coli. Kind of assay: Inhibitory activity against Alpha-galactosidase of Escherichia coli at 1 mM; No inhibition.
For another assay, the species on record is Bos taurus. The assay is described as follows: Inhibitory activity against alpha-L-Fucosidase of bovine epididymis at 1 mM; No inhibition.
In another assay the test system is Aspergillus niger. The assay is described as follows: Inhibitory activity against Alpha-galactosidase of Aspergillus niger at 1 mM; No inhibition.
In assay [13] the test system is Beta-N-acetylglucosaminidase (Canavalia ensiformis). Kind of assay: Inhibitory activity against Beta-N-acetylglucosaminidase of Jack bean at 1 mM; No inhibition.
The test system of the next assay is Aspergillus oryzae. The assay is described as follows: Inhibitory activity against Beta-D-galactosidase of Aspergillus oryzae at 1 mM; No inhibition.
For assay [14], the system named is Caldicellulosiruptor saccharolyticus. Kind of assay: Inhibitory activity against Beta-glucosidase of Caldocellum saccharolyticum at 1 mM; No inhibition.
The species named for the next assay is Gallus gallus. The assay is described as follows: Inhibitory activity against alpha-N-acetylgalactosaminidase of chicken liver at 1 mM; No inhibition.
The test system of assay [15] is Beta-N-acetylglucosaminidase (Bos taurus). Kind of assay: Inhibitory activity against Beta-N-acetylglucosaminidase of bovine epididymis A at 1 mM; No inhibition.
For assay [16] the test system is unchanged. Kind of assay: Inhibitory activity against Beta-N-acetylglucosaminidase of bovine epididymis B at 1 mM; No inhibition.
Assay [17] concerns the target T1, Tissue alpha-L-fucosidase (Homo sapiens). The assay is described as follows: Percent inhibition against alpha-L-Fucosidase of human placenta at 1 mM.
The subject of assay [18] is Canavalia ensiformis. Kind of assay: Percent inhibition against Alpha-mannosidase of Jack bean at 1 mM.
For assay [19], the target named is T3, Beta-galactosidase (Aspergillus niger). The conditions noted are these: 1 mM.
Description: Percent inhibition against Beta-D-galactosidase of Aspergillus niger at 1 mM
The subject of assay [20] is Prunus dulcis. Kind of assay: Percent inhibition against Alpha-mannosidase of Almonds at 1 mM.
Assay [21] deals with Glucoamylase (Aspergillus niger) (UniProt P69328). The assay is described as follows: Percent inhibition against Amyloglucosidase of Aspergillus niger at 1 mM.
Sequence of Glucoamylase (Aspergillus niger) (P69328 whole entry): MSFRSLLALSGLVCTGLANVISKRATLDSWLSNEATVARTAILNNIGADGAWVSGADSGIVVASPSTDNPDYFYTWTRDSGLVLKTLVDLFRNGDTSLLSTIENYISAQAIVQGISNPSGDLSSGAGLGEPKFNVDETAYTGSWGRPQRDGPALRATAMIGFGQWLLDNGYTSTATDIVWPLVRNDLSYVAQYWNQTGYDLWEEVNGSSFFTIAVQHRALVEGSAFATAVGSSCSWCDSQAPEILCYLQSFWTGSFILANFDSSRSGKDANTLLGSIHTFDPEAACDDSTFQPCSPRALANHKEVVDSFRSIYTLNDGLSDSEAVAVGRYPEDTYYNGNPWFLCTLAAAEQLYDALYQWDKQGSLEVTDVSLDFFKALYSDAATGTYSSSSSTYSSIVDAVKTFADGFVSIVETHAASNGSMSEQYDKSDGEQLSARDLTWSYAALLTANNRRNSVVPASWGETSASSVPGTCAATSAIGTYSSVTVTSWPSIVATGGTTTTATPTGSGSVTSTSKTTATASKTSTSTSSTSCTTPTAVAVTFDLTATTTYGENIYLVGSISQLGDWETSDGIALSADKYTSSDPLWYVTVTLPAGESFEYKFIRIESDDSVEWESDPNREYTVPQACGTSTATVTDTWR
Assay [22] has as its system maltase (Oryza sativa). Kind of assay: Inhibitory activity against maltase of rice at 1 mM.

Sequence of Beta-galactosidase (Escherichia coli) (Q8VNN2 whole entry, looked up): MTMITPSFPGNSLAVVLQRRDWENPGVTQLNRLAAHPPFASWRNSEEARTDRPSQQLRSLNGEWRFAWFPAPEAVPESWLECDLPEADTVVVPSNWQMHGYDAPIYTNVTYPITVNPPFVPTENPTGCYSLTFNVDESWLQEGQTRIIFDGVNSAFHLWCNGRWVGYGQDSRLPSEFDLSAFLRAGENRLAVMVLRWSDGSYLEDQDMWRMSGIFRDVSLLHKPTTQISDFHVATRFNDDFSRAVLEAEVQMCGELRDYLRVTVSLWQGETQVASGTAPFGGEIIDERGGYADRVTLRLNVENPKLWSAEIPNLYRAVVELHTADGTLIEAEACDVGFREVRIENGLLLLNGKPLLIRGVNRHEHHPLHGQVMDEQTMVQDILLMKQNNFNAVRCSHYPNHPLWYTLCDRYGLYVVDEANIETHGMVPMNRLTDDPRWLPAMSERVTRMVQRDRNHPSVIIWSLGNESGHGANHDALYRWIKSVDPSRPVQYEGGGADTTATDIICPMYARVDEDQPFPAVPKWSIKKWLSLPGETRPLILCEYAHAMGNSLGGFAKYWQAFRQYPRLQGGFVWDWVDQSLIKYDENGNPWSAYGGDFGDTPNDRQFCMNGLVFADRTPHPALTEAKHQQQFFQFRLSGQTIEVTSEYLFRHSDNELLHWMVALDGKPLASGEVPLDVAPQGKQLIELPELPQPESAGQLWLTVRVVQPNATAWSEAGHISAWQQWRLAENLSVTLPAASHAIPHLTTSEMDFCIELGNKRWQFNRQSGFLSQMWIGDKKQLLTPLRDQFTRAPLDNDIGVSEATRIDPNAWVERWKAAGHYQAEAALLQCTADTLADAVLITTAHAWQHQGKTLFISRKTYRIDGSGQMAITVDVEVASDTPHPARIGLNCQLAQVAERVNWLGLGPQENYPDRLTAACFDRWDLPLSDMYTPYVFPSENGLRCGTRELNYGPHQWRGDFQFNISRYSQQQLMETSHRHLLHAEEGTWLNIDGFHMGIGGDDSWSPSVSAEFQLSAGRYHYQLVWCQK

For `Cc1oc(C2NCC(O)C2O)cc1CO` (configuration not stated), the inhibition result (in the assay with Prunus dulcis [1]; in [2]; with Canavalia ensiformis [3]; in assay [4]; in assay [6]; in [7]) was “inactive” throughout. Besides, the inhibition entry (with maltase (Oryza sativa) [8]; in assay [9]; in assay [10]; in the assay with Prunus dulcis [11]; in the assay on Rhizopus; in the assay on Canavalia ensiformis [12]) was “inactive” throughout. Besides, the inhibition entry (in the assay on Coffea arabica; with Escherichia coli; in the assay filed under Bos taurus; in the assay on Aspergillus niger; in [13]; in the assay on Aspergillus oryzae) was “inactive” in each case. Moreover, the inhibition entry (in the assay listed under Gallus gallus; in assay [15]; in [16]) was “inactive” throughout. The results for the inhibition (in [5]; in the assay with Helix pomatia; in assay [14]) were 50%, “No inhibition” and “No inhibition”, respectively.

Regarding `CCOC(=O)c1cc(C2NCC(O)C2O)oc1C` (configuration not stated), the inhibition entry (with Prunus dulcis [1]; in [4]; in assay [7]) was “inactive” each time. For the same compound, the inhibition in [17] worked out at 76%; with Canavalia ensiformis [18] it was 38%; in assay [5], 57%; in [19], 80%.

As for `Cc1oc(C2NCC(O)C2O)cc1C(=O)NC(C)C` (configuration not stated), the inhibition came out at 29% with Prunus dulcis [20], 23% in [21] and 38% in assay [5]. The inhibition entry in assay [6] and in assay [7] was “inactive” each time.

Take `Cc1oc(C2NCC(O)C2O)cc1C(=O)O` (configuration not stated): the inhibition result (with Prunus dulcis [1]; in [2]; with Canavalia ensiformis [3]; in [4]; in assay [6]; in assay [7]) was “inactive” throughout. Moreover, the inhibition result (in [9]; in assay [10]; with Prunus dulcis [11]; in the assay with Rhizopus; in the assay with Canavalia ensiformis [12]; in the assay on Coffea arabica) was “inactive” in each case. The inhibition result (in the assay with Escherichia coli; in the assay listed under Bos taurus; in the assay on Aspergillus niger; in assay [13]; with Aspergillus oryzae; in the assay listed under Gallus gallus) was “inactive” throughout. The inhibition entry in assay [15] and in assay [16] was “inactive” throughout. For the same compound, the inhibition in assay [5] is 30%; in the assay on maltase (Oryza sativa) [22], “No inhibition”; in the assay on Helix pomatia, “No inhibition”; in assay [14] it was “No inhibition”.

For the compound `CCNC(=O)c1cc(C2NCC(O)C2O)oc1C` (configuration not stated), the figures for the inhibition (in the assay on Canavalia ensiformis [18]; in the assay with Prunus dulcis [20]; in assay [5]) were 29%, 32% and 52%, respectively. Further, the inhibition entry in assay [4], in [6] and in assay [7] was “inactive” throughout.

With `CCN(CC)C(=O)c1cc(C2NCC(O)C2O)oc1C` (configuration not stated), the inhibition in the assay with Canavalia ensiformis [18] is 27%; with Prunus dulcis [20], 31%; in assay [5], 58%. The inhibition result in assay [4], in [6] and in assay [7] was “inactive” in each case.
